Consider three compounds from US9907309B2 (priority 2010, dated 2018).

Read-outs that look alike come from different tables or passages of the source.

Conditions in all cases: solo, growth at 405 nm 7 days after inoculation
The subject of assay [1] is Septoria tritici.
Assay [2] deals with Alternaria solani.
Assay [3] relates to Phytophtora infestans. Type of assay: cell-based.

`Cn1cc(C(=O)Nc2ccccc2-c2cc(F)c(F)c(F)c2)c(C(F)F)n1` [Fluxapyroxad, fluxapyroxad] displayed an Observed efficacy in assay [1] (0.063 ppm) of 54%.
With `COC(=O)N(OC)c1ccccc1COc1ccn(-c2ccc(Cl)cc2)n1` [Pyraclostrobin, pyraclostrobin], the Observed efficacy in assay [2] (0.001 ppm) is reported as 16%; in assay [1] (0.004 ppm) it was 63%; in assay [3] (0.063 ppm), 28%.
For `C[C@]1(COC(=O)C2CC2)[C@@H]2C[C@H](O)[C@@]3(C)Oc4cc(-c5cccnc5)oc(=O)c4[C@H](O)[C@@H]3[C@@]2(C)CC[C@@H]1OC(=O)C1CC1` [Compound I, [(3S,4R,4aR,6S,6aS,12R,12aS,12bS)-3-(cyclopropanecarbonyloxy)-6,12-dihydroxy-4,6a,12b-trimethyl-11-oxo-9-(pyridin-3-yl)-1,2,3,4,4a,5,6,6a,12a,12b-decahydro-11H,12H-benzo[f]pyrano[4,3-b]chromen-4-yl]methyl cyclopropanecarboxylate], the Observed efficacy is 0% in assay [2] (1 ppm), 0% in assay [1] (4 ppm), 0% in assay [1] (63 ppm) and 6% in assay [3] (4 ppm).
